Measured values as given in PubChem BioAssay (NCI).
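Step 1: Grow cells in 96-well plates. Step 2: Expose to compound for 48 hours at 5 concentrations. Step 3: Interpolate endpoints linearly; if unreached, use highest concentration. TGI marks complete inhibition of growth.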

Columns and labels:
Assay in all cases: growth of human tumour cells (NCI), 48 h
[1] = tested on: NCI-H522 lung
[2] = tested on: SNB-75 CNS
[3] = tested on: M14 melanoma
[4] = tested on: SF-268 CNS
[5] = tested on: HL-60(TB) leukemia
[6] = tested on: SK-MEL-5 melanoma
[7] = tested on: T-47D breast
[8] = tested on: MCF7 breast
[9] = tested on: CCRF-CEM leukemia
[10] = tested on: ACHN renal
[11] = tested on: SN12C renal
[12] = tested on: SK-MEL-28 melanoma
[13] = tested on: MDA-MB-435
[14] = tested on: EKVX NSCLC
[15] = tested on: MOLT-4 leukemia
[16] = tested on: SW-620 colon
[17] = tested on: IGROV1 ovarian
[18] = tested on: MALME-3M melanoma
[19] = tested on: PC-3 prostate
[20] = tested on: 786-0 renal
[21] = tested on: OVCAR-3 ovarian
[22] = tested on: SR leukemia
[23] = tested on: SK-MEL-2 melanoma
[24] = tested on: U251 CNS
[25] = tested on: NCI-H226 lung
[26] = tested on: UACC-62 melanoma
[27] = tested on: RPMI-8226 leukemia
[28] = tested on: A549 NSCLC
[29] = tested on: UO-31 renal
[30] = tested on: NCI-H23 lung
[31] = tested on: KM12 colon
[32] = tested on: COLO 205 colon
[33] = tested on: DU-145 prostate
[34] = tested on: SNB-19 CNS
[35] = tested on: HCT-15 colon
[36] = tested on: OVCAR-8 ovarian
[37] = tested on: SK-OV-3 ovarian
[38] = tested on: NCI-H460 lung
[39] = tested on: SF-539 CNS
[40] = tested on: RXF 393 renal
[41] = tested on: CAKI-1 renal
[42] = tested on: BT-549 breast
[43] = tested on: LOX IMVI melanoma
[44] = tested on: HCT-116 colon
[45] = tested on: NCI/ADR-RES ovarian
[46] = tested on: TK-10 renal
[47] = tested on: MDA-MB-231 breast
[48] = tested on: MDA-N
[49] = tested on: HS 578T breast
[50] = tested on: HT29 colon
[51] = tested on: HOP-62 NSCLC
[52] = tested on: UACC-257 melanoma
[53] = tested on: OVCAR-4 ovarian
[54] = tested on: SF-295 CNS
[55] = tested on: OVCAR-5 ovarian
[56] = tested on: K-562 leukemia
[57] = tested on: HOP-92 NSCLC
[58] = tested on: HCC-2998 colon

SMILES: CC(C)(C)[Si](C)(C)OCC1OC(n2cnc3c(N)ncnc32)C(O)C1O (configuration not stated)
- TGI [1]: > 100 µM
- TGI [2]: > 100 µM
- TGI [3]: > 100 µM
- TGI [4]: > 100 µM
- TGI [5]: > 100 µM
- TGI [6]: 89.5 µM
- TGI [7]: > 100 µM
- TGI [8]: > 100 µM
- TGI [9]: > 100 µM
- TGI [10]: > 100 µM
- TGI [11]: > 100 µM
- TGI [12]: > 100 µM
- TGI [13]: > 100 µM
- TGI [14]: > 100 µM
- TGI [15]: > 100 µM
- TGI [16]: > 100 µM
- TGI [17]: > 100 µM
- TGI [18]: > 100 µM
- TGI [19]: > 100 µM
- TGI [20]: > 100 µM
- TGI [21]: > 100 µM
- TGI [22]: > 100 µM
- TGI [23]: > 100 µM
- TGI [24]: > 100 µM
- TGI [25]: > 100 µM
- TGI [26]: > 100 µM
- TGI [27]: > 100 µM
- TGI [28]: > 100 µM
- TGI [29]: > 100 µM
- TGI [30]: > 100 µM
- TGI [31]: > 100 µM
- TGI [32]: > 100 µM
- TGI [33]: > 100 µM
- TGI [34]: > 100 µM
- TGI [35]: > 100 µM
- TGI [36]: > 100 µM
- TGI [37]: > 100 µM
- TGI [38]: > 100 µM
- TGI [39]: > 100 µM
- TGI [40]: > 100 µM
- TGI [41]: > 100 µM
- TGI [42]: > 100 µM
- TGI [43]: > 100 µM
- TGI [44]: > 100 µM
- TGI [45]: > 100 µM
- TGI [46]: > 100 µM
- TGI [47]: > 100 µM
- TGI [48]: > 100 µM
- TGI [49]: > 100 µM
- TGI [50]: > 100 µM
- TGI [51]: > 100 µM
- TGI [52]: > 100 µM
- TGI [53]: > 100 µM
- TGI [54]: > 100 µM
- TGI [55]: > 100 µM
- TGI [56]: > 100 µM

SMILES: COc1cc2cc(C(=O)N3CC(CCl)c4c3cc([N+](C)(C)Cc3ccc([N+](=O)[O-])n3C)c3ccccc43)[nH]c2c(OC)c1OC (configuration not stated)
- TGI [1]: 0.981 µM
- TGI [2]: 7.18 µM
- TGI [3]: > 48 µM
- TGI [4]: > 100 µM
- TGI [5]: 8.16 µM
- TGI [6]: 4.18 µM
- TGI [7]: 38.9 µM
- TGI [8]: 12.5 µM
- TGI [9]: 18.6 µM
- TGI [10]: > 100 µM
- TGI [11]: > 62.4 µM
- TGI [12]: 9.11 µM
- TGI [13]: 60.7 µM
- TGI [14]: 16.4 µM
- TGI [15]: 16 µM
- TGI [16]: > 100 µM
- TGI [17]: 4.23 µM
- TGI [18]: 25.6 µM
- TGI [21]: > 100 µM
- TGI [22]: 2.29 µM
- TGI [23]: 1.5 µM
- TGI [24]: > 100 µM
- TGI [26]: 3.14 µM
- TGI [27]: 8.31 µM
- TGI [28]: 1.06 µM
- TGI [57]: 6.26 µM
- TGI [30]: 2.49 µM
- TGI [31]: > 23.8 µM
- TGI [32]: 7.36 µM
- TGI [33]: 23.8 µM
- TGI [58]: 2.48 µM
- TGI [34]: > 100 µM
- TGI [36]: 8.78 µM
- TGI [37]: > 100 µM
- TGI [38]: 5.41 µM
- TGI [39]: 14.3 µM
- TGI [41]: > 19.9 µM
- TGI [42]: 11.5 µM
- TGI [43]: 12.3 µM
- TGI [44]: 6.92 µM
- TGI [45]: 4.38 µM
- TGI [46]: 14.3 µM
- TGI [48]: 6.64 µM
- TGI [49]: 38.2 µM
- TGI [50]: > 100 µM
- TGI [51]: > 100 µM
- TGI [52]: 5.4 µM
- TGI [53]: 6.35 µM
- TGI [54]: > 38.8 µM
- TGI [55]: > 100 µM
- TGI [56]: > 100 µM
